# Measurements taken from patent US20110027325A1, “ORALLY-ADMINISTERED AGENT” (Lintec Corporation, priority 2008, published 2011).
# Test: Viscosity of aqueous solution, E-type viscometer
# Format: physicochemical
# Conditions: 37° C.
# Method: Tables 1 and 2 shown the constituent materials of the respective layers of the orally-administered agents obtained in the respective Examples and the respective Comparative Examples and the contents thereof. […] Furthermore, the viscosity of the water absorption promoter in the Table 1 and the viscosity of the antiadhesive agent in the Table 2 denote a viscosity at 37° C. of an aqueous solution of 5 mass % of the water absorption promoter and the antiadhesive agent, respectively. Each viscosity was measured with an E-type viscometer (a product of Tokimec, Inc.).
structure (smiles),measurement,setting,value
"OC[C@@H](O)[C@@H](O)[C@H](O)[C@H](O)CO [Man, mannitol]",Viscosity of antiadhesive agent,aqueous solution of 5 mass % of the antiadhesive agent,0.87 mPa · s
same,Viscosity of water absorption promoter,aqueous solution of 5 mass % of the water absorption promoter,0.87 mPa · s
